# Data reported in the PolyMetriX glass transition set.
# ± gives the standard deviation of the reports.
row,glass transition temperature [°C],SMILES
1,9.00,*CC(CCCCCCOc1ccc(/N=N/c2ccc(Cl)cc2)cc1)COC(=O)CCCCC(=O)O* (repeat unit)
2,68.00,*Oc1ccc(CC(NC(=O)CCc2ccc(OC(=O)CCCC(*)=O)cc2)C(=O)OC(C)C)cc1 (repeat unit)
3,154.00,*Oc1ccc(NC(=O)c2ccc(Oc3ccc(C(C)(C)c4cccc(C(C)(C)c5ccc(Oc6ccc(C(=O)Nc7ccc(Oc8ccc(C(c9ccc(*)cc9)(C(F)(F)F)C(F)(F)F)cc8)cc7)cc6)cc5)c4)cc3)cc2)cc1 (repeat unit)
4,98.00,*Oc1c(-c2ccccc2)cc(-c2cc(-c3ccccc3)c(OC(=O)CCCCCCCCC(*)=O)c(-c3ccccc3)c2)cc1-c1ccccc1 (repeat unit)
5,312.00,*C(=O)Nc1cccc(C(=O)Nc2cccc(NC(=O)c3ccc4[nH]c(-c5ccc(-c6nc7cc(*)ccc7[nH]6)cc5)nc4c3)c2)c1 (repeat unit)
6,125.00,*c1cccc(NC(=O)CCCCCCC(=O)Nc2cccc(S(*)(=O)=O)c2)c1 (repeat unit)
7,300.00,*Oc1ccc(S(=O)(=O)c2ccc3cc(S(=O)(=O)c4ccc(Oc5c(C)cc(-c6cc(C)c(*)c(C)c6C)c(C)c5C)cc4)ccc3c2)cc1 (repeat unit)
8,158.00,*c1ccc2cc3cc(-c4sc(-c5cc(CCCCCCCCCCCC)c(*)s5)cc4CCCCCCCCCCCC)ccc3cc2c1 (repeat unit)
9,108.00,*c1ccc(C(C#N)(C(=O)OCC(C)C)C(*)(C#N)C(=O)OCC(C)C)cc1 (repeat unit)
10,263.00,*c1cc(N2C(=O)c3ccc(Oc4ccc5c(c4)C(=O)N(*)C5=O)cc3C2=O)c(O)cc1O (repeat unit)
11,296.00,*c1ccc2c(c1)C(=O)N(c1ccc(C(=O)Nc3ccc(Oc4ccc(-c5ccc(Oc6ccc(NC(=O)c7ccc(N8C(=O)c9ccc(C(*)(C(F)(F)F)C(F)(F)F)cc9C8=O)cc7)cc6)cc5)cc4)cc3)cc1)C2=O (repeat unit)
12,175.00,*Oc1ccc(S(=O)(=O)c2ccc(Oc3ccc(C(C)(C)c4ccc(Oc5ccc(C(=O)c6ccc(*)cc6)cc5)cc4)cc3)cc2)cc1 (repeat unit)
13,100.00,*CC(O)COc1c(Cl)cc(C(C)(C)c2cc(Cl)c(OCC(O)COc3ccc(C(C)(C)c4ccc(O*)cc4)cc3)c(Cl)c2)cc1Cl (repeat unit)
14,420.00,*c1c(C)cc(Cc2cc(C)c(N3C(=O)c4ccc(Oc5c(C)cc(-c6cc(C)c(Oc7ccc8c(c7)C(=O)N(*)C8=O)c(C)c6)cc5C)cc4C3=O)c(C)c2)cc1C (repeat unit)
15,210.50,*c1ccc(S(=O)(=O)c2ccc(-n3nc(-c4ccccc4)c4cc(Oc5ccc(C(C)(C)c6ccc(Oc7ccc8c(-c9ccccc9)nn(*)c(=O)c8c7)cc6)cc5)ccc4c3=O)cc2)cc1 (repeat unit)
16,213.00,*c1ccc(Oc2ccc(/C=C/c3ccc(Oc4ccc(-c5nnc(*)o5)cc4)c4ccccc34)cc2)cc1 (repeat unit)
17,282.00,*Oc1ccc(S(=O)(=O)c2ccc(-c3ccc(S(=O)(=O)c4ccc(*)cc4)cc3)cc2)cc1 (repeat unit)
18,360.00,*c1ccc(-c2ccc(-c3cc(-c4ccccc4)c4cc(-c5ccc6nc(*)cc(-c7ccccc7)c6c5)ccc4n3)cc2)cc1 (repeat unit)
19,232.00,*Oc1ccc(NC(=O)Nc2ccccc2CCc2ccccc2NC(=O)Nc2ccc(*)cc2)cc1 (repeat unit)
20,220.00,*c1ccc(Cc2ccc(N3C(=O)c4ccc([Si](C)(C)O[Si](C)(C)O[Si](C)(C)c5ccc6c(c5)C(=O)N(*)C6=O)cc4C3=O)cc2)cc1 (repeat unit)
21,72.00,*c1ccc(C(=O)OCCCCCCCCCOC(=O)c2ccc(-c3nnc(*)s3)cc2)cc1 (repeat unit)
22,243.10,*c1cc(C(=O)NCCCCCCCCCCCC)cc(N2C(=O)c3ccc(-c4ccc5c(c4)C(=O)N(*)C5=O)cc3C2=O)c1 (repeat unit)
23,38.00,*CCCCCCCCOC(=O)NNC(=O)CCCCCCCCC(=O)NNC(=O)O* (repeat unit)
24,244.00,*C(=O)c1ccc2c(c1)C(=O)N(c1cc(OCCCC)cc(N3C(=O)c4ccc(*)cc4C3=O)c1)C2=O (repeat unit)

row,glass transition temperature [°C],SMILES
1,165.00,*/C=C/c1cc(CCCCCCCCCCCCCCCC)c(/C=C/c2nc(*)c(C#N)c(/C=C/c3ccc(N(c4ccccc4)c4ccccc4)cc3)c2C#N)cc1CCCCCCCCCCCCCCCC (repeat unit)
2,138.00,*OC(COC(=O)c1ccc2cc(C(*)=O)ccc2c1)COc1ccc(/N=N/c2ccc(C#N)cc2)cc1 (repeat unit)
3,35.00,*CC(*)(C)C(=O)OCCCCCCOc1ccc(/C=N/c2ccc(C#N)cc2)cc1 (repeat unit)
4,95.00,*CCCOc1ccc(C(=O)OC(=O)c2ccc(O*)cc2)cc1 (repeat unit)
5,241.00 ± 12,*c1ccc(Oc2ccc(N3C(=O)c4ccc(Oc5ccc(Oc6ccc7c(c6)C(=O)N(*)C7=O)cc5)cc4C3=O)cc2)cc1 (repeat unit)
6,2.00,*CC(*)(CC(=O)OCCCCC)C(=O)OCCCCC (repeat unit)
7,110.00,*CC(*)(C)C(=O)OCCN(C)c1ccc(/N=N/c2ccc([N+](=O)[O-])cc2)cc1 (repeat unit)
8,119.00,*CC(O)COc1ccc(C(C)(C)c2ccc(OCC(O)COc3cccc(NC(=O)C(=O)Nc4cccc(O*)c4)c3)cc2)cc1 (repeat unit)
9,177.00,*Oc1ccc(Oc2ccc(C(=O)c3ccc(*)cc3)cc2)cc1C(C)(C)C (repeat unit)
10,201.00,*c1ccc(Oc2ccc(C(=O)c3ccc(Oc4ccc(N5C(=O)c6ccc(Oc7cccc(Oc8ccc9c(c8)C(=O)N(*)C9=O)c7)cc6C5=O)cc4)cc3)cc2)cc1 (repeat unit)
11,212.00,*c1ccc(C(=O)Oc2c(C)cc(C(c3cccnc3)c3cc(C)c(OC(=O)c4ccc(N5C(=O)CC(Nc6ccc(NC7CC(=O)N(*)C7=O)cc6)C5=O)cc4)c(C)c3)cc2C)cc1 (repeat unit)
12,32.50,*Oc1ccc(CC(NC(=O)CCc2ccc(OC(=O)CCCC(*)=O)cc2)C(=O)OCCCCCCCC)cc1 (repeat unit)
13,272.00,*Nc1ccc(C(c2ccc(NC(=O)c3cccc(C(*)=O)c3)cc2)(C(F)(F)F)C(F)(F)F)cc1 (repeat unit)
14,224.00,*c1cccc(N2C(=O)c3ccc(Oc4ccccc4Oc4ccc5c(c4)C(=O)N(*)C5=O)cc3C2=O)c1 (repeat unit)
15,240.00,*Oc1ccc(NC(=C(C#N)C#N)c2ccc(-c3ccc(-c4ccc(C(Nc5ccc(*)cc5)=C(C#N)C#N)cc4)cc3)cc2)cc1 (repeat unit)
16,210.00,*c1ccc(Oc2ccc(S(=O)(=O)c3ccc(Oc4ccc(-c5ncc(*)o5)cc4C(F)(F)F)cc3)cc2)c(C(F)(F)F)c1 (repeat unit)
17,198.00,*Oc1ccc(S(=O)(=O)c2ccc(Oc3ccc(C(=O)c4cc(C(=O)c5ccc(*)cc5)cc(C(C)(C)C)c4)cc3)cc2)cc1 (repeat unit)
18,53.00,*Oc1ccc(CC(NC(=O)CCc2ccc(OC(=O)COCCOCC(*)=O)cc2)C(=O)OCC)cc1 (repeat unit)
19,-15.00,*CCCCCCCCCCOC(=O)CC/C=C/CCC(=O)O* (repeat unit)
20,6.00,*CCCOC(=O)Nc1cc(NC(=O)O*)ccc1C (repeat unit)
21,311.00,*C(=O)Nc1ccc(-c2sc(-c3ccc(NC(=O)c4ccc5c(c4)C(=O)N(c4ccc(Oc6ccc7ccc(Oc8ccc(N9C(=O)c%10ccc(*)cc%10C9=O)cc8)cc7c6)cc4)C5=O)cc3)c(-c3ccccc3)c2-c2ccccc2)cc1 (repeat unit)
22,279.50,*C(=O)Nc1ccc(Cc2ccc(N3C(=O)c4ccc(*)cc4C3=O)cc2)cc1 (repeat unit)
23,263.00,*C(=O)Nc1cccc(NC(=O)c2ccc3c(c2)C(=O)N(c2ccc(Oc4cccc5c(Oc6ccc(N7C(=O)c8ccc(*)cc8C7=O)cc6)cccc45)cc2)C3=O)c1 (repeat unit)
24,168.00,*Nc1cc(NC(=O)c2cc(OCCCN(C)c3ccc(/N=N/c4ccc(S(C)(=O)=O)cc4)cc3)cc(C(*)=O)c2)cc(C(=O)OCCCN(C)c2ccc(/N=N/c3ccc(S(C)(=O)=O)cc3)cc2)c1 (repeat unit)

row,SMILES,glass transition temperature [°C]
1,*CCCC(*)C (repeat unit),-52.60
2,*CC(*)SCCCC (repeat unit),-20.00
3,*c1ccc(Oc2ccc(N3C(=O)c4ccc(P(=O)(c5ccccc5)c5ccc6c(c5)C(=O)N(*)C6=O)cc4C3=O)cc2)cc1 (repeat unit),318.00
4,*CC(*)C(=O)OCCCCSC (repeat unit),-70.00
5,*N=P(Cl)(N=P(Cl)(/N=S(/*)Oc1ccccc1-c1ccccc1)Oc1ccccc1-c1ccccc1)Oc1ccccc1-c1ccccc1 (repeat unit),79.00
6,*C(=O)c1ccc2c(c1)C(=O)N(c1cccc(P(=O)(c3ccccc3)c3cccc(N4C(=O)c5ccc(*)cc5C4=O)c3)c1)C2=O (repeat unit),273.00
7,*CC(COC)O* (repeat unit) [Poly(3-methoxypropylene oxide) ],-62 ± 1.2
8,*CC(*)C(=O)c1ccc(OC)cc1 (repeat unit),46.00
9,*C(*)C(=O)OC(C)C (repeat unit),70.00
10,*CCCCCCCNC(=S)N* (repeat unit),52.00
11,*CC(*)C(=O)c1ccc(C)cc1 (repeat unit),59.50
12,*C1OCCCC1C1C(=O)OC(=O)C1* (repeat unit),210.00
13,*CC(O*)C1CC(F)(F)C1(F)F (repeat unit),-25.00
14,*CCCCCC(*)CCCC (repeat unit),-69.00
15,*C([2H])([2H])C(*)([2H])C([2H])=C([2H])[2H] (repeat unit),1.00
